Laboratory results as given in the supplement of paper PMC9938120.

Assays:
Assay in all cases: drug sensitivity score (DSS3, normalised partial AUC of % inhibition dose-response) (DSS (score)); higher = more sensitive (stronger inhibition of viability); extreme values may be limits of the assay
Conditions in all cases: 72 h; library: FO5A; assay format: 2D, 384-well, CellTiter-Glo
FMOC22 = test system: FMOC22 (patient-derived mucinous ovarian cancer cells)
Method in brief: (§1)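 The drug sensitivity score is calculated as a partial area under the percent-inhibition dose-response curve, divided by the log of the upper asymptote; higher scores mean more sensitive. For this score, early-passage (under 10) patient-derived ovarian cancer cells were exposed on 384-well flat clear-bottom plates to compounds at five concentrations across a 10,000-fold range for 72 h at 37 °C, 5% CO2. Viability was read with CellTiter-Glo and processed in Breeze.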

FMOC17 = test system: FMOC17 (patient-derived low-grade serous ovarian cancer cells)
Method in brief: as §1

FMOC24 = test system: FMOC24 (patient-derived high-grade serous ovarian cancer cells)
Method in brief: as §1

FMOC14 = test system: FMOC14 (patient-derived high-grade serous ovarian cancer cells)
Method in brief: as §1

FMOC03 = test system: FMOC03 (patient-derived mucinous ovarian cancer cells)
Method in brief: as §1

FMOC02_3 = test system: FMOC02_3 (patient-derived low-grade serous ovarian cancer cells)
Method in brief: as §1

FMOC11 = test system: FMOC11 (patient-derived high-grade serous ovarian cancer cells)
Method in brief: as §1

FMOC28 = test system: FMOC28 (patient-derived low-grade serous ovarian cancer cells)
Method in brief: as §1

FMOC09 = test system: FMOC09 (patient-derived high-grade serous ovarian cancer cells)
Method in brief: as §1

FMOC06 = test system: FMOC06 (patient-derived mucinous ovarian cancer cells)
Method in brief: as §1

FMOC02_2 = test system: FMOC02_2 (patient-derived low-grade serous ovarian cancer cells)
Method in brief: as §1

FMOC04 = test system: FMOC04 (patient-derived high-grade serous ovarian cancer cells)
Method in brief: as §1

FMOC02_1 = test system: FMOC02_1 (patient-derived low-grade serous ovarian cancer cells)
Method in brief: as §1

FMOC25_2 = test system: FMOC25_2 (patient-derived low-grade serous ovarian cancer cells)
Method in brief: as §1

FMOC27 = test system: FMOC27 (patient-derived low-grade serous ovarian cancer cells)
Method in brief: as §1

## Cc1c(-c2c(-c3ccc(F)o3)sc3ncnc(O[C@H](Cc4ccccc4OCc4ccnn4CC(F)(F)F)C(=O)O)c23)ccc(OCCN2CCN(C)CC2)c1Cl
FMOC22
  drug sensitivity score: 0
FMOC17
  drug sensitivity score: 0
FMOC24
  drug sensitivity score: 8
FMOC14
  drug sensitivity score: 0
FMOC03
  drug sensitivity score: 0
FMOC02_3
  drug sensitivity score: 2.8
FMOC11
  drug sensitivity score: 0
FMOC28
  drug sensitivity score: 0
FMOC09
  drug sensitivity score: 0
FMOC06
  drug sensitivity score: 0
FMOC02_2
  drug sensitivity score: 0
FMOC04
  drug sensitivity score: 0.05
FMOC02_1
  drug sensitivity score: 0
FMOC25_2
  drug sensitivity score: 0
FMOC27
  drug sensitivity score: 0

## COc1cc2c(cc1OCCCN1CCCC1)N=C(N)C21CCC1 [A-366]
FMOC22
  drug sensitivity score: 0
FMOC17
  drug sensitivity score: 2.3
FMOC24
  drug sensitivity score: 7.2
FMOC14
  drug sensitivity score: 0.5
FMOC03
  drug sensitivity score: 0.7
FMOC02_3
  drug sensitivity score: 0
FMOC11
  drug sensitivity score: 1.1
FMOC28
  drug sensitivity score: 0.1
FMOC09
  drug sensitivity score: 2.3
FMOC06
  drug sensitivity score: 0
FMOC02_2
  drug sensitivity score: 0.2
FMOC04
  drug sensitivity score: 3.9
FMOC02_1
  drug sensitivity score: 3.9
FMOC25_2
  drug sensitivity score: 4.9
FMOC27
  drug sensitivity score: 0

## C[C@H](Nc1ncnc2[nH]cnc12)c1cc2ccc(F)cc2nc1-c1ccccn1 [AMG319]
FMOC22
  drug sensitivity score: 0
FMOC17
  drug sensitivity score: 0.1
FMOC24
  drug sensitivity score: 0.7
FMOC14
  drug sensitivity score: 0
FMOC03
  drug sensitivity score: 0
FMOC02_3
  drug sensitivity score: 0
FMOC11
  drug sensitivity score: 0
FMOC28
  drug sensitivity score: 0
FMOC09
  drug sensitivity score: 0
FMOC06
  drug sensitivity score: 0
FMOC02_2
  drug sensitivity score: 0.1
FMOC04
  drug sensitivity score: 0
FMOC02_1
  drug sensitivity score: 0
FMOC25_2
  drug sensitivity score: 0
FMOC27
  drug sensitivity score: 0

## COCCOc1cnc2ccn([C@H](C)c3nnc4c(F)cc(-c5cnn(C)c5)cn34)c(=O)c2c1 [AMG-337]
FMOC22
  drug sensitivity score: 0
FMOC17
  drug sensitivity score: 0
FMOC24
  drug sensitivity score: 0
FMOC14
  drug sensitivity score: 0
FMOC03
  drug sensitivity score: 0
FMOC02_3
  drug sensitivity score: 0
FMOC11
  drug sensitivity score: 0
FMOC28
  drug sensitivity score: 3.4
FMOC09
  drug sensitivity score: 0
FMOC06
  drug sensitivity score: 0
FMOC02_2
  drug sensitivity score: 0
FMOC04
  drug sensitivity score: 0
FMOC02_1
  drug sensitivity score: 0
FMOC25_2
  drug sensitivity score: 0
FMOC27
  drug sensitivity score: 0

## CN(C)CCCOc1ccc(-c2ccc3ncc4c(c3c2)n(C2CCOCC2)c(=O)n4C)cn1 [AZD0156]
FMOC22
  drug sensitivity score: 0.9
FMOC17
  drug sensitivity score: 2.2
FMOC24
  drug sensitivity score: 0
FMOC14
  drug sensitivity score: 0
FMOC03
  drug sensitivity score: 0.5
FMOC02_3
  drug sensitivity score: 3.1
FMOC11
  drug sensitivity score: 0
FMOC28
  drug sensitivity score: 4.6
FMOC09
  drug sensitivity score: 0.1
FMOC06
  drug sensitivity score: 0.1
FMOC02_2
  drug sensitivity score: 3.4
FMOC04
  drug sensitivity score: 0.8
FMOC02_1
  drug sensitivity score: 5.3
FMOC25_2
  drug sensitivity score: 2.5
FMOC27
  drug sensitivity score: 0

## COc1cc2ncnc(Nc3cccc(Cl)c3F)c2cc1OC(=O)N1CCN(C)C[C@H]1C [AZD3759]
FMOC22
  drug sensitivity score: 0
FMOC17
  drug sensitivity score: 7
FMOC24
  drug sensitivity score: 0
FMOC14
  drug sensitivity score: 0.5
FMOC03
  drug sensitivity score: 4.8
FMOC02_3
  drug sensitivity score: 5.9
FMOC11
  drug sensitivity score: 3.3
FMOC28
  drug sensitivity score: 5
FMOC09
  drug sensitivity score: 2.8
FMOC06
  drug sensitivity score: 0.2
FMOC02_2
  drug sensitivity score: 5.4
FMOC04
  drug sensitivity score: 0.25
FMOC02_1
  drug sensitivity score: 6.4
FMOC25_2
  drug sensitivity score: 4.2
FMOC27
  drug sensitivity score: 2.8

## CC#CC(=O)N1CCC[C@H]1c1nc(-c2ccc(C(=O)Nc3ccccn3)cc2)c2c(N)nccn12 [Acalabrutinib]
FMOC22
  drug sensitivity score: 0
FMOC17
  drug sensitivity score: 2.2
FMOC24
  drug sensitivity score: 0
FMOC14
  drug sensitivity score: 0
FMOC03
  drug sensitivity score: 0
FMOC02_3
  drug sensitivity score: 0.7
FMOC11
  drug sensitivity score: 0.2
FMOC28
  drug sensitivity score: 0.5
FMOC09
  drug sensitivity score: 0.8
FMOC06
  drug sensitivity score: 2.6
FMOC02_2
  drug sensitivity score: 0
FMOC04
  drug sensitivity score: 0.6
FMOC02_1
  drug sensitivity score: 0.3
FMOC25_2
  drug sensitivity score: 0
FMOC27
  drug sensitivity score: 0

## COc1cc(C)c(/C=C/C(C)=C/C=C/C(C)=C/C(=O)O)c(C)c1C [Acitretin]
FMOC22
  drug sensitivity score: 0
FMOC17
  drug sensitivity score: 0
FMOC24
  drug sensitivity score: 0
FMOC14
  drug sensitivity score: 0
FMOC03
  drug sensitivity score: 0
FMOC02_3
  drug sensitivity score: 3.4
FMOC11
  drug sensitivity score: 2.8
FMOC28
  drug sensitivity score: 0.3
FMOC09
  drug sensitivity score: 0
FMOC06
  drug sensitivity score: 0.1
FMOC02_2
  drug sensitivity score: 0.7
FMOC04
  drug sensitivity score: 0
FMOC02_1
  drug sensitivity score: 0.2
FMOC25_2
  drug sensitivity score: 0
FMOC27
  drug sensitivity score: 0

## O=C(Nc1cc(Oc2cc(F)c(NC(=O)C3(C(=O)Nc4ccc(F)cc4)CC3)cc2F)ccn1)C1CC1 [Altiratinib]
FMOC22
  drug sensitivity score: 4.3
FMOC17
  drug sensitivity score: 3
FMOC24
  drug sensitivity score: 8.2
FMOC14
  drug sensitivity score: 5.1
FMOC03
  drug sensitivity score: 5
FMOC02_3
  drug sensitivity score: 5.1
FMOC11
  drug sensitivity score: 2.4
FMOC28
  drug sensitivity score: 3.3
FMOC09
  drug sensitivity score: 1.7
FMOC06
  drug sensitivity score: 6.9
FMOC02_2
  drug sensitivity score: 5.2
FMOC04
  drug sensitivity score: 1.05
FMOC02_1
  drug sensitivity score: 4.9
FMOC25_2
  drug sensitivity score: 9.1
FMOC27
  drug sensitivity score: 5.1

## CNC(=O)c1ccc(N2C(=S)N(c3cnc(C#N)c(C(F)(F)F)c3)C(=O)C23CCC3)cc1F [Apalutamide]
FMOC22
  drug sensitivity score: 0
FMOC17
  drug sensitivity score: 0
FMOC24
  drug sensitivity score: 0.45
FMOC14
  drug sensitivity score: 0
FMOC03
  drug sensitivity score: 0
FMOC02_3
  drug sensitivity score: 0
FMOC11
  drug sensitivity score: 0
FMOC28
  drug sensitivity score: 3.4
FMOC09
  drug sensitivity score: 0
FMOC06
  drug sensitivity score: 0
FMOC02_2
  drug sensitivity score: 0
FMOC04
  drug sensitivity score: 0
FMOC02_1
  drug sensitivity score: 0
FMOC25_2
  drug sensitivity score: 0
FMOC27
  drug sensitivity score: 0

## O=C(Nc1ccc(OC(F)(F)Cl)cc1)c1cnc(N2CC[C@@H](O)C2)c(-c2cc[nH]n2)c1 [Asciminib]
FMOC22
  drug sensitivity score: 0
FMOC17
  drug sensitivity score: 0
FMOC24
  drug sensitivity score: 0.9
FMOC14
  drug sensitivity score: 0
FMOC03
  drug sensitivity score: 0
FMOC02_3
  drug sensitivity score: 0
FMOC11
  drug sensitivity score: 0
FMOC28
  drug sensitivity score: 0
FMOC09
  drug sensitivity score: 0
FMOC06
  drug sensitivity score: 1
FMOC02_2
  drug sensitivity score: 1
FMOC04
  drug sensitivity score: 0
FMOC02_1
  drug sensitivity score: 0
FMOC25_2
  drug sensitivity score: 0.1
FMOC27
  drug sensitivity score: 0

## CC1(C)C(C(=O)Nc2ccc(S(=O)(=O)c3ccc(NC(=O)C4C(C)(C)C4(C)C)cc3)cc2)C1(C)C [BRD7116]
FMOC22
  drug sensitivity score: 0
FMOC17
  drug sensitivity score: 1.4
FMOC24
  drug sensitivity score: 1.5
FMOC14
  drug sensitivity score: 0
FMOC03
  drug sensitivity score: 0.5
FMOC02_3
  drug sensitivity score: 3.7
FMOC11
  drug sensitivity score: 2.2
FMOC28
  drug sensitivity score: 1
FMOC09
  drug sensitivity score: 0
FMOC06
  drug sensitivity score: 0.8
FMOC02_2
  drug sensitivity score: 0.1
FMOC04
  drug sensitivity score: 0
FMOC02_1
  drug sensitivity score: 0
FMOC25_2
  drug sensitivity score: 0
FMOC27
  drug sensitivity score: 0
